Values of other authors as cited in patent publication US20030215409A1, “Process for the treatment of human keratinous fibers” (L'OREAL, priority 2002, published 2003).

Test system: hair
Conditions: hair densification, current compositions

Nc1ccnc(N)[n+]1[O-] [aminexil]
time after which the user begins to have a benefit: 1.5 months
